20 molecules from US9102669B2, “Substituted piperidinyl-pyridazinyl derivatives useful as SCD 1 inhibitors” (Janssen Pharmaceutica NV, priority 2011, dated 2015) can be followed below.

Values joined by “and” are separate entries in the source; they are usually repeats but may differ in a detail not shown here. Equal values may be shown once. Read-outs that look alike come from different tables or passages of the source.

The target of assay [1] is SCD1 (Rattus norvegicus (Rat), UniProt P07308). Nature of the assay: SCD1 enzymatic assay in rat liver microsomes (RLM). It is filed as biochemical. Conditions: for inhibition at 1 µM: read-out: % Inh.@ 1 μM. In outline:
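Microsomes from livers of Sprague Dawley rats after fast/fat-free re-feeding cycles (10 μg per reaction) were incubated 2 h at room temperature with 20 μM stearoyl-CoA plus ^3H-stearoyl-CoA (2 μCi/mL), ATP, CoA, NADH and glutathione in 0.1 M K-phosphate, with compound. Reactions were acid-stopped and charcoal-treated; radioactivity was counted and fitted to a sigmoidal dose-response curve.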

Assay [2] deals with T1, SCD1 (Homo sapiens (Human), UniProt O00767). Nature of the assay: SCD1 14C-palmitate assay in A431 cells. It is filed as cell-based. The note with it: read-out: A431 cells 14C-PA IC50. How it is done:
Human epithelial carcinoma A431 cells were seeded at 400,000 cells per well in 48-well tissue culture plate and treated with 2 cycles of fasting in low glucose medium (DMEM, Cellgro#10-014-CV, 1 g/L glucose, 2% Charcoal Filtered FBS) for 24 hours; and re-feeding with high glucose medium for 24 hours (DMEM, Cellgro#10-013-CM, 4.5 g/L glucose, 10% Charcoal Filtered FBS and 0.05 mg/mL Lilly Humulin R, Cat.#, HI-210). Prior to running the assay, the cells were washed twice with high glucose medium (400 μL), followed by addition of 250 μL assay buffer (DMEM, 4.5 g/L glucose, 0.05 mg/mL Human Insulin, 0.1% Fatty Acid Free BSA) to each well. Then, 100 μL of assay buffer containing 20 μM Palmitic Acid, 0.05 μCi ^14C Palmitic Acid (Perkin Elmer, NEC075H) and test compound (at selected concentration) was added to each well. The cells were then Incubated at 37° C. and 5% CO2 tissue culture incubator for 4 hours, followed by extensive washes with pre-chilled PBS. The cell plates were then frozen at −20° C. overnight. After thawing out the plates, 100 μL of 1N KOH was added to each well and the plates were incubated at 37° C. for 30 mins. Cell lysates were transferred to 1 mL Eppendorf tubes and incubated at 95° C. for 1 hour, followed by addition of 10 μL formic acid and 220 μL acetonitrile. The tubes were then centrifuged at 12,000 rpm and the supernatant dried under N2 for 2-3 hours. Dried extract was re-suspended in 60 μL hexane and loaded onto TLC plates (pre-coated with 10% AgNO3 in acetonitrile). The TLC plates were placed into glass running chamber containing 200 mL running solution (100 mL running solution: 92.5 mL chloroform, 6 mL methanol, 750 μL acetic acid, 750 μL dH2O). After running, the TLC plates were air dried and scanned on Bioscan AR-2000 for quantification of ^14C-palmitioleate and ^14C-palmitate peaks. Area under the curve of the peaks were used to calculate product/substrate ratio, an index of SCD1 activity.

The target of assay [3] is T1, SCD1. Nature of the assay: SCD1 13C-palmitic acid assay in A431 cells. It is filed as cell-based. The note with it: read-out: A431 cells 13C-PA IC50. In outline: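 A431 cells with 0.05 mg/mL human insulin in 0.1% fatty-acid-free BSA assay medium; 4 h incubation at 37 °C before KOH saponification with D4-palmitate internal standard.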
The nature of assay [4]: 10-day diet-induced obese C57bl/6 mice study, body weight change. It is filed as in vivo, mouse. Further details: unit not given here. The note with it: DIO C57BL/6J mice, oral 30 mg/kg once a day, after 10 days of treatment. How it is done:
Male DIO C57BL/6J mice from Taconic were maintained on high fat diet D12492 containing 60% kCal of mostly saturated fats (Research Diets Inc.) for 4 week from 6-week old. Test compounds were prepared in 0.5% hydroxypropyl methyl cellulose for oral dosing at 30 mg/kg once a day. After 10-days of treatment, body weight change was recorded.
Representative compounds of the present invention were tested according to the procedure as described above, with results as listed in Table 7, below. In the results presented below, * indicates a calculated p value <0.05 vs. vehicle-treated group.

[5] abbreviates: 1 μM test compound, rat liver microsomes.

Usually IC50 stands for the concentration that gives 50% inhibition.

Sequence of SCD1 (Rattus norvegicus (Rat), UniProt P07308) (P07308 whole entry): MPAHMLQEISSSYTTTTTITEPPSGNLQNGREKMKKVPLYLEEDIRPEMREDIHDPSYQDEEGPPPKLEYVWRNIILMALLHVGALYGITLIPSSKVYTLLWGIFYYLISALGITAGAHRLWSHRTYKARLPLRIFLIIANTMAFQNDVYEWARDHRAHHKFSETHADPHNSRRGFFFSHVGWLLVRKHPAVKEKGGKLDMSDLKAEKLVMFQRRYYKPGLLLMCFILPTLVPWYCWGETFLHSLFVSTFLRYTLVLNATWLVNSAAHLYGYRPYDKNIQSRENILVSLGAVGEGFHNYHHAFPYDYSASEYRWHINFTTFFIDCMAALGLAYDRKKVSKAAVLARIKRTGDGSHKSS
T1 sequence (O00767 whole entry): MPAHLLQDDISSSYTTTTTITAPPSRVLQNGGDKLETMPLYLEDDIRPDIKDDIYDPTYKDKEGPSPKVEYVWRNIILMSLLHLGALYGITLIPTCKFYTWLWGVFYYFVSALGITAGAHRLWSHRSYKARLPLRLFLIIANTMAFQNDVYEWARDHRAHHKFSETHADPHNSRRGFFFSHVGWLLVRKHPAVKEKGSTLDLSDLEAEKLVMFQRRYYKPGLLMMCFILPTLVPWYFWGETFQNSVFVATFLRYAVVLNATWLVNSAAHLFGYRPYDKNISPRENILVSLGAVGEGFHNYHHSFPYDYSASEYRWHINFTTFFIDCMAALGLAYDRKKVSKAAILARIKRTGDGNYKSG

Consider `Cc1cn(-c2ccc(N3CCC(N4CCc5ccccc54)CC3)nn2)cn1` [Compound #1, 1-(1-(6-(4-methyl-1H-imidazol-1-yl)pyridazin-3-yl)piperidin-4-yl)indoline], for which the inhibition at 1 µM on SCD1 [1] (setting [5]) was found to be 86%. The IC50 was 76 nM on SCD1 [1] (rat liver microsomes) and 257 nM on SCD1 [2].
For the molecule `Cn1cc(-c2ccc(N3CCC(c4noc5ccc(F)cc45)CC3)nn2)cn1` [Compound #3, 5-fluoro-3-(1-(6-(1-methyl-1 H-pyrazol-4-yl)pyridazin-3-yl)piperidin-4-yl)benzo[d]isoxazole], on SCD1 [1] (setting [5]), the inhibition at 1 µM came out at 87%. Moreover, the figures for the IC50 against SCD1 [1] (rat liver microsomes) and on SCD1 [2] were 126 nM and 377 nM, respectively.
In the case of `Cc1cn(-c2ccc(N3CCC(N4CCc5ccc(F)cc54)CC3)nn2)cn1` [Compound #4, 6-fluoro-1-(1-(6-(4-methyl-1H-imidazol-1-yl)pyridazin-3-yl)piperidin-4-yl)indoline], on SCD1 [1] (setting [5]), the “% Inh.@ 1 μM” value is given as 93% and the inhibition at 1 µM amounted to 95%. Further, the IC50 on SCD1 [3] was 9 nM. For the same molecule, the IC50 on SCD1 [2] amounted to 68 nM.
As to `Cc1nsc(-c2ccc(N3CCC(c4noc5ccc(F)cc45)CC3)nn2)n1` [Compound #5, 5-fluoro-3-(1-(6-(3-methyl-1,2,4-thiadiazol-5-yl)pyridazin-3-yl)piperidin-4-yl)benzo[d]isoxazole], the inhibition at 1 µM at SCD1 [1] (setting [5]) came out at 89%. In addition, the IC50 amounted to 68 nM at SCD1 [1] (rat liver microsomes) and 139 nM on SCD1 [2].
For `Cc1nsc(-c2ccc(N3CCC(n4ccc5ccccc54)CC3)nn2)n1` [Compound #6, 5-(6-(4-(1H-indol-1-yl)piperidin-1-yl)pyridazin-3-yl)-3-methyl-1,2,4-thiadiazole], the inhibition at 1 µM at SCD1 [1] (setting [5]) stood at 79%. In addition, the IC50 was 34 nM against SCD1 [1] (rat liver microsomes); 62 nM and 102 nM on SCD1 [2].
In the case of `Cc1nsc(-c2ccc(N3CCC(N4CCc5ccccc54)CC3)nn2)n1` [Compound #7, 5-(6-(4-(indolin-1-yl)piperidin-1-yl)pyridazin-3-yl)-3-methyl-1,2,4-thiadiazole], at SCD1 [1] (setting [5]), the inhibition at 1 µM came out at 95%. The IC50 turned out to be 14 nM against SCD1 [1] (rat liver microsomes) and 24 nM at SCD1 [2].
In the case of `Cn1cc(-c2ccc(N3CCC(n4ccc5ccccc54)CC3)nn2)cn1` [Compound #9, 1-(1-(6-(1-methyl-1H-pyrazol-4-yl)pyridazin-3-yl)piperidin-4-yl)-1H-indole], on SCD1 [1] (setting [5]), the inhibition at 1 µM worked out at 81%. In addition, the values for the IC50 against SCD1 [1] (rat liver microsomes) and on SCD1 [2] were 422 nM and 359 nM, respectively.
In the same order, the values of `Cn1cc(-c2ccc(N3CCC(N4CCc5ccccc54)CC3)nn2)cn1` [Compound #10, 1-(1-(6-(1-methyl-1H-pyrazol-4-yl)pyridazin-3-yl)piperidin-4-yl)indoline] are 84%, 394 nM and 383 nM.
With `Cc1nsc(-c2ccc(N3CCC(N4CCc5ccc(F)cc54)CC3)nn2)n1` [Compound #12, 5-(6-(4-(6-fluoroindolin-1-yl)piperidin-1-yl)pyridazin-3-yl)-3-methyl-1,2,4-thiadiazole], at SCD1 [1] (setting [5]), the “% Inh.@ 1 μM” value came out at 97% and the inhibition at 1 µM was 95%. The molecule further returned an IC50 against SCD1 [1] (rat liver microsomes) of 11 nM. Moreover, the IC50 on SCD1 [2] worked out at 362 nM.
For `OCc1cnn(-c2ccc(N3CCC(N4CCc5ccc(F)cc54)CC3)nn2)c1` [Compound #22], the IC50 is 22 nM and 11 nM on SCD1 [1] (rat liver microsomes); 7 nM and 5 nM at SCD1 [3]. In addition, the inhibition at 1 µM on SCD1 [1] was 98%. Further, the body weight change in assay [4] is listed as 1.2 ± 0.3 *.
For the molecule `OCc1ccc(-c2ccc(N3CCC(N4CCc5ccc(F)cc54)CC3)nn2)cn1` [Compound #39], the inhibition at 1 µM at SCD1 [1] (setting [5]) was found to be 99%. Moreover, the IC50 against SCD1 [1] (rat liver microsomes) turned out to be 9 nM; on SCD1 [3], 0.5 nM. Moreover, the body weight change in assay [4] is listed as −2.2 ± 0.5 *.
Regarding `Cn1cc(-c2ccc(N3CCC(n4ncc5ccc(F)cc54)CC3)nn2)cn1` [Compound #47, 6-fluoro-1-(1-(6-(1-methyl-1H-pyrazol-4-yl)pyridazin-3-yl)piperidin-4-yl)-1H-indazole], in assay [4], the body weight change is listed as −3.3 ± 0.5 *. In addition, at SCD1 [3], the IC50 is 69 nM and 33 nM.
Regarding `OCCn1cc(-c2ccc(N3CCC(N4CCc5ccc(F)cc54)CC3)nn2)cn1` [Compound #49, 2-(4-(6-(4-(6-fluoroindolin-1-yl)piperidin-1-yl)pyridazin-3-yl)-1H-pyrazol-1-yl)ethanol], on SCD1 [1] (setting [5]), the “% Inh.@ 1 μM” value was determined as 91%. Further, the inhibition at 1 µM on SCD1 [1] (setting [5]) is 95%. Further, the IC50 at SCD1 [1] (rat liver microsomes) is 25 nM and 19 nM; on SCD1 [3], 21 nM and 22 nM. Moreover, the body weight change in assay [4] is 0.5 ± 0.1 *.
With `NNC(=O)c1ccc(N2CCC(c3noc4ccc(F)cc34)CC2)nn1` [Compound I1, 6-(4-(5-fluorobenzo[d]isoxazol-3-yl)piperidin-1-yl)pyridazine-3-carbohydrazide], the inhibition at 1 µM at SCD1 [1] (setting [5]) was 100%. In addition, the IC50 on SCD1 [1] (rat liver microsomes) is 59 nM; at SCD1 [3] it was greater than 3000 nM; at SCD1 [2] it was 3060 nM.
Take `Fc1ccc2onc(C3CCN(c4ccc(-c5cccnc5)nn4)CC3)c2c1` [compound 8, 5-fluoro-3-(1-(6-(pyridin-3-yl)pyridazin-3-yl)piperidin-4-yl)benzo[d]isoxazote]: at SCD1 [1] (setting [5]), the inhibition at 1 µM is 86%. The IC50 against SCD1 [1] (rat liver microsomes) was 165 nM; at SCD1 [2], 577 nM.
As for `Fc1ccc2onc(C3CCN(c4ccc(-n5ccnc5)nn4)CC3)c2c1` [compound 84, 3-(1-(6-(1H-imidazol-1-yl)pyridazin-3-yl)piperidin-4-yl)-5-fluorobenzo[d]isoxazole], at SCD1 [1] (setting [5]), the inhibition at 1 µM came out at 85%. In addition, the figures for the IC50 against SCD1 [1] (rat liver microsomes) and on SCD1 [2] were 156 nM and 157 nM, respectively.
For `Cc1cn(-c2ccc(N3CCC(c4noc5ccc(F)cc45)CC3)nn2)cn1` [compound 85, 5-fluoro-3-(1-(6-(4-methyl-1H-imidazol-1-yl)pyridazin-3-yl)piperidin-4-yl)benzo[d]isoxazole], the inhibition at 1 µM at SCD1 [1] (setting [5]) came to 97%. Also, the IC50 stood at 65 nM against SCD1 [1] (rat liver microsomes) and 148 nM at SCD1 [2].
For `Cc1cn(-c2ccc(N3CCC(n4ccc5ccccc54)CC3)nn2)cn1` [compound 88, 1-(1-(6-(4-methyl-1H-imidazol-1-yl)pyridazin-3-yl)piperidin-4-yl)-1H-indole], in that order: 84%, 86 nM and 116 nM.
For `Cc1cn(-c2ccc(N3CCC(c4noc5cc(F)ccc45)CC3)nn2)cn1` [compound 89, 6-fluoro-3-(1-(6-(4-methyl-1H-imidazol-1-yl)pyridazin-3-yl)piperidin-4-yl)benzo[d]isoxazole], in that order: 88%, 257 nM and 691 nM.
Consider `Cc1ccn(-c2ccc(N3CCC(c4noc5ccc(F)cc45)CC3)nn2)n1` [compound 92, 5-fluoro-3-(1-(6-(3-methyl-1H-pyrazol-1-yl)pyridazin-3-yl)piperidin-4-yl)benzo[d]isoxazole], for which, at SCD1 [1] (setting [5]), the inhibition at 1 µM stood at 79%. The IC50 amounted to 126 nM at SCD1 [1] (rat liver microsomes) and 63 nM at SCD1 [2].
